Data set [1] deals with T1, glycine binding pocket of the NMDA receptor (Rattus norvegicus, UniProt P35439).
T1 construct: The cortex is dissected out and processed as described by Parsons, et al; from tissue; host or cells: rat cerebral cortex membranes (male Sprague-Dawley)
Nature of the data set: [3H]-MDL-105,519 displacement studies on rat cortical membranes. Particulars: displacement of 2 nM [3H]-MDL-105,519, rat cortical membranes, 4° C., 1 h; read-out: NMDA-MDL 105519-r-CTX - IC50. The protocol:
[^3]MDL-105,519 Displacement Studies
For the evaluation of the binding affinity of the test compounds on the glycine binding pocket of the NMDA receptor, [^3H]-MDL-105,519 (GE Healthcare, Freiburg, Germany) displacement studies are performed using a 96-well plate robotic platform. MDL-105,519 (Baron et al., J Pharmacol Exp Ther 1996, 279(1), 62-68; Baron et al., European Journal of Pharmacology, 1997, 323(2-3), 181-192; Hoffner & Wanner, Neuroscience Letters, 1997, 226(2), 79-82) is a selective, high affinity antagonist at the NMDA receptor glycine site.
Tissue preparation is performed according to Foster & Wong (Br J Pharmacol, 1987, 91, 403-409) with some modifications. Anaesthetised male Sprague-Dawley rats (200-250 g, Janvier, Le Genest-Isle, France) are decapitated and their brains removed rapidly. The cortex is dissected out and processed as described by Parsons, et al. (J Pharmacol Exp Ther, 1997, 283(3), 1264-1275). For isolation of the cell membranes, the cortices are homogenized in 20 volumes of ice-cold 0.32 M sucrose (Sigma-Aldrich, Taufkirchen, Germany) using a glass-Teflon homogenizer. The homogenate is centrifuged at 1000×g for 10 minutes, the pellet is discarded and the supernatant centrifuged at 20,000×g for 20 minutes. The resulting pellet is re-suspended in 20 volumes of distilled water and centrifuged for 20 minutes at 8000×g. The supernatant and the buffy coat are then centrifuged three times (48,000×g for 20 minutes) in the presence of 50 mM Tris-HCl, pH 8.0 (assay buffer). All centrifugation steps are carried out at 4° C. After resuspension in 5 volumes of 50 mM Tris-HCl, pH 7.5, the membrane suspension is frozen rapidly at −80° C. On the day of assay, the membranes are thawed and washed four times by resuspension in 50 mM Tris-HCl, pH 7.5, and centrifugation at 48,000×g for 20 minutes. The final pellet is suspended in assay buffer. The amount of protein in the final membrane preparation is determined according to the method of Lowry, et al. (J. Biological Chemistry, 1951, 193, 256-275) with some modifications (Hartree, Analytical Biochemistry, 1972, 48, 422-427). The final protein concentration used for our studies is 400 μg/ml.
A robotic system designed for binding assays (Tecan Deutschland GmbH, Crailsheim, Germany) is loaded with the membrane solution, solutions for bound control (buffer/DMSO 20%), unlabeled glycine (1 mM) for evaluation of non-specific binding, all compounds to be tested (at 20-fold concentrations), radioligand and respective 96-well plates.
Before performing displacement studies, saturation experiments are performed to determine the equilibrium dissociation constant (Kd) of [^3H]-MDL-105,519, which is a parameter for the affinity of the radioligand to the binding site. The protein/receptor concentration is held constant whereas the amount of specific bound radioligand is determined using increasing concentrations of ligand.
On the basis of the saturation experiments, a final [^3H]-MDL-105,519 concentration of 2 nM is selected. Firstly, the assay plates are loaded with membrane solution and are shaken at 4° C. The mother plates are then prepared by pipetting the compounds (n=4) into assay buffer/20% DMSO to obtain the desired final concentrations. After transferring radioligand into the assay plates, the compounds are added (including the bound and the non-specific binding control). The final DMSO concentration is 1%. The assay plates are incubated and shaken at 4° C. for 1 h, before the mixture is exhausted as rapidly as possible via a vacuum manifold using the Multiscreen HTS glass fibre (type B) filter plates (Millipore, Schwalbach, Germany) under a constant vacuum of 450 mbar. The membranes are washed four times with cold assay buffer (100 μL). […]

A value given as a limit tells only on which side of the number the result lay.

A word on the melting point: it is the temperature, or range, at which the solid turns liquid. In general, IC50 refers to the concentration that inhibits the measured activity by half.

`O=C(O)c1cc2cc(Cl)ccc2nc1N[C@@H](Cc1ccccc1)C(=O)O` [Example 1, 2-((S)-1-Carboxy-2-phenyl-ethylamino)-6-chloro-quinoline-3-carboxylic acid] registered a melting point of 153 to 159 °C. The IC50 in data set [1] turned out to be 410 nM.

Consider `O=C(O)c1cc2cc(Cl)ccc2nc1N[C@@H](Cc1ccc(Oc2nc3ccc(Cl)cc3cc2C(=O)O)cc1)C(=O)O` [Example 8, 2-{(S)-1-Carboxy-2-[4-(3-carboxy-6-chloroquinolin-2-yloxy)-phenyl]-ethylamino}-6-chloro-quinoline-3-carboxylic acid], for which, in data set [1], the IC50 turned out to be 450 nM.

On to `O=C(O)c1cc2cc(Cl)ccc2nc1N[C@@H](Cc1ccc(OCc2ccccc2)cc1)C(=O)O` [Example 22, 2-[(S)-2-(4-Benzyloxy-phenyl)-1-carboxy-ethylamino]-6-chloro-quinoline-3-carboxylic acid], for which the IC50 in data set [1] came out at 2700 nM.

Regarding `CC(c1ccccc1)C(Nc1nc2ccc(Cl)cc2cc1C(=O)O)C(=O)O` (stereo not drawn) [Example 31, erythro-2-(1-Carboxy-2-phenyl-propylamino)-6-chloro-quinoline-3-carboxylic acid], the IC50 in data set [1] turned out to be 3370 nM.

As for `O=C(O)c1cc2cc(Cl)c(Cl)cc2nc1N[C@@H](Cc1ccccc1)C(=O)O` [Example 32, 2-((S)-1-Carboxy-2-phenyl-ethylamino)-6,7-dichloro-quinoline-3-carboxylic acid], the IC50 in data set [1] amounted to 5800 nM.

For the compound `O=C(O)c1cc2cc(Cl)ccc2nc1N[C@@H](CC1CCCCC1)C(=O)O` [Example 35, 2-((S)-1-Carboxy-2-cyclohexyl-ethylamino)-6-chloro-quinoline-3-carboxylic acid], the IC50 in data set [1] is 3300 nM.

On to `O=C(O)c1cc2cc(Cl)ccc2nc1N[C@@H](Cc1ccncc1)C(=O)O` [Example 55, 2-((S)-1-Carboxy-2-pyridin-4-yl-ethylamino)-6-chloro-quinoline-3-carboxylic acid], for which the melting point is 155 to 158 °C (dec.). Further, the IC50 in data set [1] was determined as 4390 nM.

Regarding `Cc1cc(Cl)cc2cc(C(=O)O)c(NC(Cc3ccccc3)C(=O)O)nc12` (stereo not drawn) [Example 95, 2-(1-Carboxy-2-phenyl-ethylamino)-6-chloro-8-methylquinoline-3-carboxylic acid], the melting point was > 145 °C (dec.). Further, in data set [1], the concentration for half-maximal inhibition (IC50) turned out to be 2290 nM.

Take `Cc1cc(Cl)cc2cc(C(=O)O)c(NC(Cc3c[nH]c4ccccc34)C(=O)O)nc12` (stereo not drawn) [Example 97, 2-[1-Carboxy-2-(1H-indol-3-yl)-ethylamino]-6-chloro-8-methylquinoline-3-carboxylic acid]: the melting point was > 160 °C (dec.). In addition, the IC50 in data set [1] is 2490 nM.

On to `O=C(O)c1cc2cc(Cl)ccc2nc1NC(Cc1ccc(Nc2ccnc3ccccc23)cc1)C(=O)O` (stereo not drawn) [Example 104, 2-{1-Carboxy-2-[4-(quinolin-4-ylamino)-phenyl]-ethylamino}-6-chloro-quinoline-3-carboxylic acid], for which the melting point was > 200 °C (dec.). The IC50 in data set [1] is 700 nM.

Consider `O=C(O)c1cc2cc(Cl)ccc2nc1N[C@@H](Cc1ccc(Oc2ccnc3cc(Cl)ccc23)cc1)C(=O)O` [Example 142, 2-{(S)-1-Carboxy-2-[4-(7-chloro-quinolin-4-yloxy)-phenyl]-ethylamino}-6-chloro-quinoline-3-carboxylic acid], for which, in data set [1], the IC50 came to 1440 nM.

In the case of `O=C(O)c1cc2cc(Cl)ccc2nc1N[C@@H](Cc1ccc(Oc2ccncc2Br)cc1)C(=O)O` [Example 144, 2-{(S)-2-[4-(3-Bromo-pyridin-4-yloxy)-phenyl]-1-carboxy-ethylamino}-6-chloro-quinoline-3-carboxylic acid], the IC50 in data set [1] stood at 840 nM.

For the compound `O=C(O)c1cc2cc(Cl)ccc2nc1N[C@@H](Cc1ccc(Oc2ccc3cc(Br)cnc3n2)cc1)C(=O)O` [Example 147, 2-{(S)-2-[4-(6-Bromo-[1,8]naphthyridin-2-yloxy)-phenyl]-1-carboxy-ethylamino}-6-chloro-quinoline-3-carboxylic acid], in data set [1], the IC50 came out at 290 nM.

Turning to `O=C(O)c1cc2cc(Cl)cc(Cl)c2nc1N[C@@H](Cc1c[nH]c2ccccc12)C(=O)O` [Example 155, 2-[(S)-1-Carboxy-2-(1H-indol-3-yl)-ethylamino]-6,8-dichloro-quinoline-3-carboxylic acid], in data set [1], the IC50 worked out at 1030 nM.

`O=C(O)c1cc2cc(Cl)ccc2nc1N[C@@H](Cc1cccs1)C(=O)O` [Example 156, 2-((S)-1-Carboxy-2-thiophen-2-yl-ethylamino)-6-chloro-quinoline-3-carboxylic acid]: the melting point was > 250 °C (dec.). Besides, in data set [1], the IC50 turned out to be 1910 nM.

The values are drawn from patent US8288549B2, “Glycine B antagonist” (Merz Pharma GmbH & Co. KGaA, priority 2008, dated 2012).
